In assay [1] the target is T1, human DGKα (Homo sapiens (Human), UniProt P23743). In words: DGKα LIPGLO assay (extruded liposome substrate). Format: biochemical. An outline of the steps: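 Human full-length DGKα, His-tagged and produced in Sf9 cells, assayed at 20 nM (4× stock) on extruded liposomes of PS, 0.25 mM DAG and 2.75 mM PC, preincubated 10 min. Reaction started with 300 μM ATP (stock) and ran 1 h in MOPS pH 7.5/MgCl2/CaCl2/DTT buffer.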

The subject of assay [2] is pre-activated CD4 T cells and Raji cells. As to the kind of experiment: Raji CD4 T Cell IL2 Assay. Format: cell-based.
For assay [3], the target named is T2, human DGKζ (Homo sapiens (Human), UniProt Q13574). In words: DGKζ assay (detergent/lipid micelle substrate). Format: biochemical. The settings on record: detergent/lipid micelle substrate; read-out: DGKζ IC50. An outline of the steps:
(§1)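 Full-length human DGKζ (and DGKα), C-terminal His-tagged, Sf9-expressed, with phosphatidylserine/DAG micelles in 50 mM octyl glucoside; buffer 50 mM MOPS pH 7.5, 100 mM NaCl, 10 mM MgCl2, 1 μM CaCl2, 1 mM DTT.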

In assay [4] the target is T1, human DGKα. As to the kind of experiment: biochemical. Particulars: detergent/lipid micelle substrate; read-out: DGKα IC50. In short, it runs like this: as §1
For assay [5], the target named is T2, human DGKζ. As to the kind of experiment: DGKζ LIPGLO assay (extruded liposome substrate). The settings on record: extruded liposome substrate; read-out: DGKζ LIPGLO IC50. Format: biochemical. In short, it runs like this: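 Sf9-derived DGKζ was premixed 10 min with PC/DAG/PS liposomes (100 nm extruded) in MOPS pH 7.5 buffer containing NaCl, MgCl2, CaCl2 and DTT.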

Read-outs that look alike come from different tables or passages of the source.

T1 sequence (P23743 other isoform, or with tags, fused parts or gaps): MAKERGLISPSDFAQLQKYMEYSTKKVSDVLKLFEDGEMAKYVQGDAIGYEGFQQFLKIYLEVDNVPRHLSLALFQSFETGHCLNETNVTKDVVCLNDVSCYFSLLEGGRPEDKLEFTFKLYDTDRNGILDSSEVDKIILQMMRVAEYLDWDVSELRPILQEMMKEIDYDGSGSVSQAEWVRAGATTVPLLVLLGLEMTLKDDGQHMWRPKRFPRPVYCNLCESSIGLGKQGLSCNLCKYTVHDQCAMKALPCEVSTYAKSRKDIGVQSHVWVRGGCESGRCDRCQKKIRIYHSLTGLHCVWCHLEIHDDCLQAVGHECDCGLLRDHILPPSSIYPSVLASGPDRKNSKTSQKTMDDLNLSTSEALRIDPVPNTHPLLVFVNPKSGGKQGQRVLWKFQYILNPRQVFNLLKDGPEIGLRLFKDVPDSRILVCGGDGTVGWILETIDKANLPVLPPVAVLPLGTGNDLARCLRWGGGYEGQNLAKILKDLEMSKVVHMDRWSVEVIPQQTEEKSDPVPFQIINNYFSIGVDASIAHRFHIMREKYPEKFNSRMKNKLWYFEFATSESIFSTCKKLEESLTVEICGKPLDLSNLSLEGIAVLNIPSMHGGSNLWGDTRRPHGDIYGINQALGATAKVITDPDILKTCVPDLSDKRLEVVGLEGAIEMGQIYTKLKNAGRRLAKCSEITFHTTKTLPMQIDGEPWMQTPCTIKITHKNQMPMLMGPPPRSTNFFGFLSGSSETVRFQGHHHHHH
T2 sequence (Q13574 other isoform, or with tags, fused parts or gaps): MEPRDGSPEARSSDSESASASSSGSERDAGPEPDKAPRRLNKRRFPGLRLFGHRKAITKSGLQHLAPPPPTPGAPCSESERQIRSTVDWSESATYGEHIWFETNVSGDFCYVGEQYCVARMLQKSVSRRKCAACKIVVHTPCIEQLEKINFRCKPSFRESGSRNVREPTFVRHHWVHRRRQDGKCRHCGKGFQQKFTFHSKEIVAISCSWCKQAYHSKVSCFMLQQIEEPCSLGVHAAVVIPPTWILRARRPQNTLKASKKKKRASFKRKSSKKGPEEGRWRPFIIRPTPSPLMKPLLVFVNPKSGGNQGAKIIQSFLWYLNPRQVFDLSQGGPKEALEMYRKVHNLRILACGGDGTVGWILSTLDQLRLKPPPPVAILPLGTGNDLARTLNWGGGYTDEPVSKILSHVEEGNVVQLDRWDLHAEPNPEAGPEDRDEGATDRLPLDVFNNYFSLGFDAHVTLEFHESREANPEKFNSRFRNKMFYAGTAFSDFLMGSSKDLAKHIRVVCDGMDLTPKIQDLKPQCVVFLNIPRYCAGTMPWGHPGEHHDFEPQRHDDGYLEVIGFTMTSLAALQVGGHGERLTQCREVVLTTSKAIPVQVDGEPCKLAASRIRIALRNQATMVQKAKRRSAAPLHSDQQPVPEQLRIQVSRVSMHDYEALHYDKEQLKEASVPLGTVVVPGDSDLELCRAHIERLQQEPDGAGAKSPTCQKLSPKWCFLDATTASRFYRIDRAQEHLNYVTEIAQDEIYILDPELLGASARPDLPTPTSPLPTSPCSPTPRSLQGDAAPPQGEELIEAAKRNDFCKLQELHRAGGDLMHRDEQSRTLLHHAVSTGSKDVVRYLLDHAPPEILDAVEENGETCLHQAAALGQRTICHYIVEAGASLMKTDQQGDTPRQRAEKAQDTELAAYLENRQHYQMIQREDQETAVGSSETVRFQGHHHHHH

Broadly, the IC50 is the point on the concentration scale where inhibition reaches its midpoint. Regarding `C#CCn1c(=O)c(C#N)c(N2CCN(Cc3ccc(C)cc3O)CC2)c2nc(Br)ccc21` [Example 66, 6-bromo-4-(4-(2-hydroxy-4-methylbenzyl)piperazin-1-yl)-2-oxo-1-(prop-2-yn-1-yl)-1,2-dihydro-1,5-naphthyridine-3-carbonitrile], the IC50 in assay [1] is 230 nM; in assay [2] (Homo sapiens, Raji), 48 nM; in assay [3], 13 µM; in assay [4], 84 nM; in assay [5], 1.7 µM.

Regarding `C#CCn1c(=O)c([N+](=O)[O-])c(N2CCN(C(c3ccc(F)cc3)c3ccc(F)cc3OC)CC2)c2nc(C#N)ccc21` (single isomer, unassigned) [Example 128, 8-(4-((4-fluoro-2-methoxyphenyl)(4-fluorophenyl)methyl)piperazin-1-yl)-7-nitro-6-oxo-5-(prop-2-yn-1-yl)-5,6-dihydro-1,5-naphthyridine-2-carbonitrile], the IC50 was 18000 nM in assay [1]; 100 nM in assay [2]; 1.5 µM in assay [3]; 21000 nM in assay [4]; 0.048 µM in assay [5].

On to `C=CCOc1cc(F)ccc1C(C)N1CCN(c2c(C#N)c(=O)n(C)c3ccc(Cl)nc23)CC1` (stereo not drawn) [Example 195, 4-(4-(1-(2-(allyloxy)-4-fluorophenyl)ethyl)piperazin-1-yl)-6-chloro-1-methyl-2-oxo-1,2-dihydro-1,5-naphthyridine-3-carbonitrile], for which the IC50 is 1700 nM in assay [1]; 120 nM in assay [2] (Homo sapiens, Raji); more than 240 µM in assay [3]; 220 nM in assay [4]; 98 µM in assay [5].

Regarding `Cn1c(=O)c(C#N)c(N2CCN(Cc3ccc(Cl)cc3O)CC2)c2nc(Cl)ccc21` [Example 288, 6-chloro-4-{4-[(4-chloro-2-hydroxyphenyl)methyl]piperazin-1-yl}-methyl-2-oxo-1,2-dihydro-1,5-naphthyridine-3-carbonitrile], the IC50 in assay [1] was 33 nM; in assay [2] (Homo sapiens, Raji) it was 100 nM; in assay [3], more than 240 µM; in assay [4], 37 nM; in assay [5], 2.3 µM.

Regarding `Cn1c(=O)c(C#N)c(N2CCN(Cc3cccc(F)c3O)CC2)c2nc(Br)ccc21` [Example 304, 6-bromo-4-{4-[(3-fluoro-2-hydroxyphenyl)methyl]piperazin-1-yl}-1-methyl-2-oxo-1,2-dihydro-1,5-naphthyridine-3-carbonitrile], the IC50 in assay [1] came out at 610 nM; in assay [2] (Homo sapiens, Raji) it was 190 nM; in assay [3], 68 µM; in assay [4], 330 nM; in assay [5], 5.8 µM.

As for `CC(C)C(c1ccc(F)cc1)N1CCN(c2c(C#N)c(=O)n(C)c3ccc(Cl)nc23)CC1` (single isomer, unassigned) [Example 316, 6-chloro-4-{4-[1-(4-fluorophenyl)-2-methylpropyl]piperazin-1-yl}-methyl-2-oxo-1,2-dihydro-1,5-naphthyridine-3-carbonitrile], the concentration for half-maximal inhibition (IC50) in assay [1] was 250 nM; in assay [2], 410 nM; in assay [3], more than 240 µM; in assay [4], 400 nM; in assay [5] it was more than 240 µM.

As for `CC(c1ccc(F)cc1)N1CCN(c2c([N+](=O)[O-])c(=O)n(CC#N)c3ccc(C#N)nc23)CC1` (stereo not drawn) [Example 151, 5-(cyanomethyl)-8-(4-(1-(4-fluorophenyl)ethyl)piperazin-1-yl)-7-nitro-6-oxo-5,6-dihydro-1,5-naphthyridine-2-carbonitrile], the IC50 in assay [1] was 7300 nM; in assay [2] (Homo sapiens, Raji), 880 nM; in assay [3], 27 µM; in assay [4], 38000 nM; in assay [5], 3.1 µM.

Take `Cn1c(=O)c(C#N)c(N2CCN(Cc3cc(F)ccc3O)CC2)c2nc(Cl)ccc21` [Example 312, 6-chloro-4-{4-[(5-fluoro-2-hydroxyphenyl)methyl]piperazin-1-yl}-1-methyl-2-oxo-1,2-dihydro-1,5-naphthyridine-3-carbonitrile]: the IC50 in assay [1] was 220 nM; in assay [2] (Homo sapiens, Raji), 240 nM; in assay [3], more than 240 µM; in assay [4] it was 120 nM; in assay [5] it was 16 µM.

As for `CCC(c1ccc(F)cc1)N1CCN(c2c(C#N)c(=O)n(C)c3ccc(Br)nc23)CC1` (single isomer, unassigned) [Example 27, 6-bromo-4-{4-[1-(4-fluorophenyl)propyl]piperazin-1-yl}-1-methyl-2-oxo-1,2-dihydro-1,5-naphthyridine-3-carbonitrile], the IC50 is 110 nM in assay [1]; 57 nM in assay [2]; more than 240 µM in assay [3]; 110 nM in assay [4]; more than 240 µM in assay [5].

As to `C#CCn1c(=O)c(C#N)c(N2CCN(Cc3ccc(F)cc3O)CC2)c2nc(Br)ccc21` [Example 67, 6-bromo-4-(4-(4-fluoro-2-hydroxybenzyl)piperazin-1-yl)-2-oxo-1-(prop-2-yn-1-vi)-1,2-dihydro-1,5-naphthyridine-3-carbonitrile], the IC50 in assay [1] was determined as 4800 nM; in assay [2] (Homo sapiens, Raji) it was 6.6 nM; in assay [3], 13 µM; in assay [4], 130 nM; in assay [5] it was 12 µM.

On to `Cn1c(=O)c(C#N)c(N2CCN(C(c3ccc(F)cc3)C3CC3)CC2)c2nc(Br)ccc21` (stereo not drawn) [Example 35, 6-bromo-4-{4-[cyclopropyl(4-fluorophenyl)methyl]piperazin-1-yl}-1-methyl-2-oxo-1,2-dihydro-1,5-naphthyridine-3-carbonitrile], for which the IC50 in assay [1] is 990 nM; in assay [2] (Homo sapiens, Raji), 210 nM; in assay [3], more than 240 µM; in assay [4], 140 nM; in assay [5], 81 µM.

Take `CCn1ccc2c(CN3CCN(c4c(C#N)c(=O)n(C)c5ccc(Br)nc45)CC3)cccc21` [Example 225, 6-bromo-4-(4-((1-ethyl-1H-indol-4-yl)methyl)piperazin-1-yl)-1-methyl-2-oxo-1,2-dihydro-1,5-naphthyridine-3-carbonitrile]: the IC50 stood at 820 nM in assay [1]; 70 nM in assay [2] (Homo sapiens, Raji); 14 µM in assay [3]; 390 nM in assay [4]; 1.3 µM in assay [5].

On to `CCn1ccc2c(CN3CCN(c4c([N+](=O)[O-])c(=O)n(C)c5ccc(Br)nc45)CC3)cccc21` [Example 54, 6-bromo-4-(4-((1-ethyl-H-indol-4-yl)methyl)piperazin-1-yl)-1-methyl-3-nitro-1,5-naphthyridin-2(1H)-one], for which the IC50 in assay [1] was 3100 nM; in assay [2] (Homo sapiens, Raji), 63 nM; in assay [3], 7.3 µM; in assay [4] it was 820 nM; in assay [5], 1.3 µM.

With `Cn1c(=O)c(C#N)c(N2CCN(Cc3cccc(Cl)c3O)CC2)c2nc(Cl)ccc21` [Example 293, 6-chloro-4-{4-[(3-chloro-2-hydroxyphenyl)methyl]piperazin-1-yl}-1-methyl-2-oxo-1,2-dihydro-1,5-naphthyridine-3-carbonitrile], the IC50 in assay [1] turned out to be 600 nM; in assay [2] (Homo sapiens, Raji), 110 nM; in assay [3] it was 58 µM; in assay [4], 270 nM; in assay [5] it was 6 µM.

For the compound `CC(c1ccc(F)cc1)N1CCN(c2c(C#N)c(=O)n(CC#N)c3ccc(Br)nc23)CC1` (stereo not drawn) [Example 154, 6-bromo-1-(cyanomethyl)-4-(4-(1-(4-fluorophenyl)ethyl)piperazin-1-yl)-2-oxo-1,2-dihydro-1,5-naphthyridine-3-carbonitrile], the IC50 was 81000 nM in assay [1]; 880 nM in assay [2] (Homo sapiens, Raji); more than 240 µM in assay [3]; 45000 nM in assay [4]; 72 µM in assay [5].

Regarding `Cc1ccc2c(n1)c(N1CCN(C(c3ccc(F)cc3)c3ccc(F)cc3)CC1)c(Br)c(=O)n2C` [Example 239, 4-(4-(bis(4-fluorophenyl)methyl)piperazin-1-yl)-3-bromo-1,6-dimethyl-1,5-naphthyridin-2(1H)-one], the IC50 in assay [1] was 9900 nM; in assay [2] (Homo sapiens, Raji), 3600 nM; in assay [3], more than 240 µM; in assay [4] it was 11000 nM; in assay [5] it was 51 µM.

For `Cn1c(=O)c(C#N)c(N2CCN(Cc3ccc(F)cc3Cl)CC2)c2nc(Cl)ccc21` [Example 287, 6-chloro-4-{4-[(2-chloro-4-fluorophenyl)methyl]piperazin-1-yl}-1-methyl-2-oxo-1,2-dihydro-1,5-naphthyridine-3-carbonitrile], the 50% inhibitory concentration (IC50) in assay [1] was 18000 nM; in assay [2] (Homo sapiens, Raji), 100 nM; in assay [3], more than 240 µM; in assay [4], 2100 nM; in assay [5], 29 µM.

With `Cn1c(=O)c(C#N)c(N2CCN(Cc3ccc(F)cc3O)CC2)c2nc(Br)ccc21` [Example 192, 6-bromo-4-(4-(4-fluoro-2-hydroxybenzyl)piperazin-1-yl)-1-methyl-2-oxo-1,2-dihydro-1,5-naphthyridine-3-carbonitrile], the concentration for half-maximal inhibition (IC50) is 48 nM in assay [1]; 200 nM in assay [2] (Homo sapiens, Raji); more than 240 µM in assay [3]; 84 nM in assay [4]; 8.1 µM in assay [5].

The values above are taken from patent US11866430B2, “Naphthyridinone compounds useful as T cell activators” (priority 2018, dated 2024).
